{"source": "ChEMBL document CHEMBL3044907", "about": "“Sensitivity of Fusarium verticillioides isolates from rice to a novel cyanoacrylate fungicide” (Crop Prot, 2012)", "assay_type_in_all_cases": "functional", "key": {"Fusarium verticillioides [1]": {"test_system": "Fusarium verticillioides", "experiment": "(§1) Fungicidal activity against Fusarium verticilliodes isolate YZ03 in rice seeds harvested from bakane diseased plants assessed as number of seedlings abnormally elongated or exhibiting symptoms of damping-off at 12.5 ug/ml at 30 degC incubated for 72 hr measured after 3 days under greenhouse trials (reference value: 21.3%)"}, "Fusarium verticillioides [2]": {"test_system": "Fusarium verticillioides", "experiment": "as §1, with “JS06” for “YZ03”, “8.33” for “12.5”, “25.2%)” for “21.3%)”"}, "Fusarium verticillioides [3]": {"test_system": "Fusarium verticillioides", "experiment": "as §1, with “JS07” for “YZ03”, “8.33” for “12.5”, “33.8%)” for “21.3%)”"}, "Fusarium verticillioides [4]": {"test_system": "Fusarium verticillioides", "experiment": "as §1, with “YZ06” for “YZ03”, “8.33” for “12.5”, “45.3%)” for “21.3%)”"}, "Fusarium verticillioides [5]": {"test_system": "Fusarium verticillioides", "experiment": "as §1, with “YZ04” for “YZ03”, “8.33” for “12.5”, “44.2%)” for “21.3%)”"}, "Fusarium verticillioides [6]": {"test_system": "Fusarium verticillioides", "experiment": "as §1, with “YZ12” for “YZ03”, “45.8%)” for “21.3%)”"}, "Fusarium verticillioides [7]": {"test_system": "Fusarium verticillioides", "experiment": "as §1, with “YZ10” for “YZ03”, “49.2%)” for “21.3%)”"}, "Fusarium verticillioides [8]": {"test_system": "Fusarium verticillioides", "experiment": "as §1, with “JS06” for “YZ03”, “25.2%)” for “21.3%)”"}, "Fusarium verticillioides [9]": {"test_system": "Fusarium verticillioides", "experiment": "as §1, with “JS02” for “YZ03”, “6.25” for “12.5”, “24.9%)” for “21.3%)”"}, "Fusarium verticillioides [10]": {"test_system": "Fusarium verticillioides", "experiment": "as §1, with “YZ22” for “YZ03”, “22.5%)” for “21.3%)”"}, "Fusarium verticillioides [11]": {"test_system": "Fusarium verticillioides", "experiment": "as §1, with “JS08” for “YZ03”, “8.33” for “12.5”, “13.0%)” for “21.3%)”"}, "Fusarium verticillioides [12]": {"test_system": "Fusarium verticillioides", "experiment": "as §1, with “YZ13” for “YZ03”, “26.8%)” for “21.3%)”"}, "Fusarium verticillioides [13]": {"test_system": "Fusarium verticillioides", "experiment": "as §1, with “N05” for “YZ03”, “6.2%)” for “21.3%)”"}, "Fusarium verticillioides [14]": {"test_system": "Fusarium verticillioides", "experiment": "as §1, with “N01” for “YZ03”, “25” for “12.5”, “27.4%)” for “21.3%)”"}, "Fusarium verticillioides [15]": {"test_system": "Fusarium verticillioides", "experiment": "as §1, with “YZ09” for “YZ03”, “17.5%)” for “21.3%)”"}, "Fusarium verticillioides [16]": {"test_system": "Fusarium verticillioides", "experiment": "as §1, with “YZ22” for “YZ03”, “6.25” for “12.5”, “22.5%)” for “21.3%)”"}, "Fusarium verticillioides [17]": {"test_system": "Fusarium verticillioides", "experiment": "as §1, with “N03” for “YZ03”, “6.25” for “12.5”, “36.1%)” for “21.3%)”"}, "Fusarium verticillioides [18]": {"test_system": "Fusarium verticillioides", "experiment": "as §1, with “JS05” for “YZ03”, “36.4%)” for “21.3%)”"}, "Fusarium verticillioides [19]": {"test_system": "Fusarium verticillioides", "experiment": "as §1, with “N01” for “YZ03”, “8.33” for “12.5”, “27.4%)” for “21.3%)”"}, "Fusarium verticillioides [20]": {"test_system": "Fusarium verticillioides", "experiment": "as §1, with “YZ26” for “YZ03”, “49.3%)” for “21.3%)”"}, "Fusarium verticillioides [21]": {"test_system": "Fusarium verticillioides", "experiment": "as §1, with “YZ10” for “YZ03”, “6.25” for “12.5”, “49.2%)” for “21.3%)”"}, "Fusarium verticillioides [22]": {"test_system": "Fusarium verticillioides", "experiment": "as §1, with “YZ06” for “YZ03”, “45.3%)” for “21.3%)”"}, "Fusarium verticillioides [23]": {"test_system": "Fusarium verticillioides", "experiment": "as §1, with “YZ05” for “YZ03”, “6.25” for “12.5”, “33.3%)” for “21.3%)”"}, "Fusarium verticillioides [24]": {"test_system": "Fusarium verticillioides", "experiment": "as §1, with “YZ12” for “YZ03”, “6.25” for “12.5”, “45.8%)” for “21.3%)”"}, "Fusarium verticillioides [25]": {"test_system": "Fusarium verticillioides", "experiment": "as §1, with “YZ13” for “YZ03”, “25” for “12.5”, “26.8%)” for “21.3%)”"}, "Fusarium verticillioides [26]": {"test_system": "Fusarium verticillioides", "experiment": "as §1, with “YZ06” for “YZ03”, “6.25” for “12.5”, “45.3%)” for “21.3%)”"}, "Fusarium verticillioides [27]": {"test_system": "Fusarium verticillioides", "experiment": "as §1, with “YZ12” for “YZ03”, “25” for “12.5”, “45.8%)” for “21.3%)”"}, "Fusarium verticillioides [28]": {"test_system": "Fusarium verticillioides", "experiment": "as §1, with “JS08” for “YZ03”, “6.25” for “12.5”, “13.0%)” for “21.3%)”"}, "Fusarium verticillioides [29]": {"test_system": "Fusarium verticillioides", "experiment": "as §1, with “N06” for “YZ03”, “25” for “12.5”, “9.6%)” for “21.3%)”"}, "Fusarium verticillioides [30]": {"test_system": "Fusarium verticillioides", "experiment": "as §1, with “YZ22” for “YZ03”, “8.33” for “12.5”, “22.5%)” for “21.3%)”"}, "Fusarium verticillioides [31]": {"test_system": "Fusarium verticillioides", "experiment": "as §1, with “YZ22” for “YZ03”, “25” for “12.5”, “22.5%)” for “21.3%)”"}, "Fusarium verticillioides [32]": {"test_system": "Fusarium verticillioides", "experiment": "as §1, with “YZ07” for “YZ03”, “6.25” for “12.5”, “43.2%)” for “21.3%)”"}, "Fusarium verticillioides [33]": {"test_system": "Fusarium verticillioides", "experiment": "as §1, with “N05” for “YZ03”, “8.33” for “12.5”, “6.2%)” for “21.3%)”"}, "Fusarium verticillioides [34]": {"test_system": "Fusarium verticillioides", "experiment": "as §1, with “JS08” for “YZ03”, “13.0%)” for “21.3%)”"}, "Fusarium verticillioides [35]": {"test_system": "Fusarium verticillioides", "experiment": "as §1, with “YZ06” for “YZ03”, “25” for “12.5”, “45.3%)” for “21.3%)”"}, "Fusarium verticillioides [36]": {"test_system": "Fusarium verticillioides", "experiment": "as §1, with “YZ04” for “YZ03”, “44.2%)” for “21.3%)”"}}, "data": [{"smiles": "CCOC(=O)/C(C#N)=C(/N)c1ccccc1", "values": [{"measurement": "Activity", "setting": "Fusarium verticillioides [1]", "result": 0, "unit": "%"}, {"measurement": "Activity", "setting": "Fusarium verticillioides [2]", "result": 0, "unit": "%"}, {"measurement": "Activity", "setting": "Fusarium verticillioides [3]", "result": 0, "unit": "%"}, {"measurement": "Activity", "setting": "Fusarium verticillioides [4]", "result": 0, "unit": "%"}, {"measurement": "Activity", "setting": "Fusarium verticillioides [5]", "result": 0, "unit": "%"}, {"measurement": "Activity", "setting": "Fusarium verticillioides [6]", "result": 0, "unit": "%"}, {"measurement": "Activity", "setting": "Fusarium verticillioides [7]", "result": 0, "unit": "%"}, {"measurement": "Activity", "setting": "Fusarium verticillioides [8]", "result": 0, "unit": "%"}, {"measurement": "Activity", "setting": "Fusarium verticillioides [9]", "result": 2, "unit": "%"}, {"measurement": "Activity", "setting": "Fusarium verticillioides [10]", "result": 0.5, "unit": "%"}, {"measurement": "Activity", "setting": "Fusarium verticillioides [11]", "result": 0, "unit": "%"}, {"measurement": "Activity", "setting": "Fusarium verticillioides [12]", "result": 0, "unit": "%"}, {"measurement": "Activity", "setting": "Fusarium verticillioides [13]", "result": 0, "unit": "%"}, {"measurement": "Activity", "setting": "Fusarium verticillioides [14]", "result": 0, "unit": "%"}, {"measurement": "Activity", "setting": "Fusarium verticillioides [15]", "result": 0, "unit": "%"}, {"measurement": "Activity", "setting": "Fusarium verticillioides [16]", "result": 2.7, "unit": "%"}, {"measurement": "Activity", "setting": "Fusarium verticillioides [17]", "result": 0.5, "unit": "%"}, {"measurement": "Activity", "setting": "Fusarium verticillioides [18]", "result": 0, "unit": "%"}, {"measurement": "Activity", "setting": "Fusarium verticillioides [19]", "result": 0, "unit": "%"}, {"measurement": "Activity", "setting": "Fusarium verticillioides [20]", "result": 0, "unit": "%"}, {"measurement": "Activity", "setting": "Fusarium verticillioides [21]", "result": 3.8, "unit": "%"}, {"measurement": "Activity", "setting": "Fusarium verticillioides [22]", "result": 0, "unit": "%"}, {"measurement": "Activity", "setting": "Fusarium verticillioides [23]", "result": 0.5, "unit": "%"}, {"measurement": "Activity", "setting": "Fusarium verticillioides [24]", "result": 3.2, "unit": "%"}, {"measurement": "Activity", "setting": "Fusarium verticillioides [25]", "result": 0, "unit": "%"}, {"measurement": "Activity", "setting": "Fusarium verticillioides [26]", "result": 1, "unit": "%"}, {"measurement": "Activity", "setting": "Fusarium verticillioides [27]", "result": 0, "unit": "%"}, {"measurement": "Activity", "setting": "Fusarium verticillioides [28]", "result": 3.6, "unit": "%"}, {"measurement": "Activity", "setting": "Fusarium verticillioides [29]", "result": 0, "unit": "%"}, {"measurement": "Activity", "setting": "Fusarium verticillioides [30]", "result": 0.5, "unit": "%"}, {"measurement": "Activity", "setting": "Fusarium verticillioides [31]", "result": 0, "unit": "%"}, {"measurement": "Activity", "setting": "Fusarium verticillioides [32]", "result": 1.6, "unit": "%"}, {"measurement": "Activity", "setting": "Fusarium verticillioides [33]", "result": 0, "unit": "%"}, {"measurement": "Activity", "setting": "Fusarium verticillioides [34]", "result": 0, "unit": "%"}, {"measurement": "Activity", "setting": "Fusarium verticillioides [35]", "result": 0, "unit": "%"}, {"measurement": "Activity", "setting": "Fusarium verticillioides [36]", "result": 0, "unit": "%"}]}]}
